Reference: US20070259856A1, “Method for Activating Trpv4 Channel Receptors by Agonists” (priority 2004, published 2007)

How the values were obtained:
[1] = tested on: MMP-3; test: IL-1 induced MMP-3 production in human chondrocytes; format: cell-based; details: IL-1 10 ng/mL, 24 hours
Procedure: (§1) Human chondrocytes were exposed to L-1 (10 ng/mL) to induce MMP-3 and MMP-13 production. Increased production of MMP-3 and MMP-13 was verified by both Northern blot (mRNA) and ELISA assay (protein). Cells were exposed to Formula IIb at concentrations ranging from 0.1 μM to 10 μM. […] TRPV4 channel receptor agonist inhibits IL-1-induced MMP-3 and MMP-13 production.

[2] = tested on: MMP-13; test: IL-1 induced MMP-13 production in human chondrocytes; format: cell-based; details: IL-1 10 ng/mL, 24 hours
Procedure: as §1

[3] = tested on: aggrecanase; test: IL-1 induced aggrecanase production, chondrocyte-based aggrecanase peptide cleavage assay; format: cell-based, bovine; details: IL-1 3.0 ng/mL; for Aggrecanase Production (Mean ± SEM OD 450 nm): 24 hour
From the text: Aggrecanases (ADAMTSs), in conjunction with MMPs, degrade aggrecan, one of the major matrix components in articular cartilage. […] 2003; 48(1): 119-133].

[4] = biological target: T1, ADAMTS-4 (aggrecanase-1) (Homo sapiens, UniProt O75173); test: Cleavage of the peptide substrate by soluble ADAMTS-4; format: biochemical
T1 sequence (O75173 213-837): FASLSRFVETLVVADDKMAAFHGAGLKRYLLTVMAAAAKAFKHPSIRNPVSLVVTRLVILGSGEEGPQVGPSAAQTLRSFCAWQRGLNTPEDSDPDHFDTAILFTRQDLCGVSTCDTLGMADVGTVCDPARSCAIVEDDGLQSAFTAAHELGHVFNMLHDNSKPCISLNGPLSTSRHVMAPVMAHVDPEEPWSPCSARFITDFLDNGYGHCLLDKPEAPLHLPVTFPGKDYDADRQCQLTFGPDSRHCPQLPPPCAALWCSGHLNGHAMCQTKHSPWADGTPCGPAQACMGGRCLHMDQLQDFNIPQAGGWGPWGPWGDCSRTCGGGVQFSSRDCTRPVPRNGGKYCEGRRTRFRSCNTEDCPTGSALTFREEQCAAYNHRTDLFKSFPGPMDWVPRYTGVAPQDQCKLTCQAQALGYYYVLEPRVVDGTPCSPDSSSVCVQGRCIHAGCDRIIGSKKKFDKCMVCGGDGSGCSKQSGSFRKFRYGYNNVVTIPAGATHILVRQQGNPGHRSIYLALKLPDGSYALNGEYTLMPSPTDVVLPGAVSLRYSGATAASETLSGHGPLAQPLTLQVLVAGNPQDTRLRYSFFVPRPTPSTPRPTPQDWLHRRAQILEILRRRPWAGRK

[5] = tested on: bovine articular cartilage explants; test: IL-1 induced collagen degradation (hydroxyproline) in bovine articular cartilage explants; format: cell-based; details: 1 uM, IL-1 50 ng/ml, media from day 14-18
Procedure: IL-1 stimulates collagen degradation in bovine articular cartilage explants after extended (−2-3 weeks) exposure to IL-1. Collagen breakdown was evaluated by measuring the levels of hydroxyproline, a major component of hydrolyzed collagen fibrils, using a colorimetric assay that is understood in the art. Bovine articular cartilage was stimulated with IL-1 for 18 days, in the absence or presence of Formula Ib or Formula IId (both at 1 uM). Media was removed and replaced every 2-4 days with fresh IL-1 and compound through day 18. As has been shown previously, aggrecan degradation precedes collagen breakdown in IL-1-stimulated bovine cartilage explants. Once aggrecan depletion had been achieved by day 10, media were analyzed for collagen breakdown using the hydroxyproline assay.

[6] = tested on: nitric oxide; test: IL-1 induced nitric oxide production, bovine articular chondrocytes in alginate beads (Greiss reaction); format: cell-based; details: IL-1 10 ng/mL
Procedure: Nitric oxide (NO) is a free radical that is believed to contribute to the tissue destruction in osteoarthritis. While having direct effects on cartilage matrix damage, NO can also contribute by activating latent proteases which leads to increased tissue destruction. To evaluate the effect of TRPV4 channel receptor agonists on NO production, bovine articular chondrocytes were embedded in alginate beads as described in Hauselmann, et al. (1992) Matrix 12: 116-129, and NO levels were determined in the conditioned media by Greiss reaction (Badger A M, et al. (1998) J. Immunol. 161: 467-473), following stimulation by IL-1, in the absence or presence of TRPV4 channel receptor agonist.

[7] = tested on: proteoglycan synthesis; test: Proteoglycan synthesis ([35S] incorporation), bovine articular chondrocytes in alginate beads; format: cell-based; details: IL-1 10 ng/mL
From the text: Although cartilage degradation is the hallmark of osteoarthritis, there is also a reduction in the ability of chondrocytes to resynthesize damaged matrix. It has been observed that cytokines, including IL-1, cause a significant reduction in collagen and proteoglycan (PG) synthesis. The effect on matrix synthesis, combined with the stimulation of matrix breakdown by these cytokines, leads to an overall net loss of cartilage matrix. The effects of TRPV4 channel receptor agonists on the synthesis of proteoglycans was measured by [^35S] incorporation in bovine articular chondrocytes embedded in alginate beads. IL-1 caused an inhibition of [^35S] incorporation into large molecular weight proteoglycan monomers, and Formula IIb caused a concentration-dependent reversal of the IL1-mediated inhibition of PG synthesis as shown in Table 10.

effect on cleavage of the peptide substrate by soluble ADAMTS-4 [4]: no effect
Structure (SMILES): CC(C)C[C@H](NC(=O)c1cc2ccccc2s1)C(=O)N[C@@H]1CCCN(S(=O)(=O)c2ccc(F)cc2)CC1=O [Formula IIb, N-{(1S)-1-[({(4R)-1-[(4-fluorophenyl)sulfonyl]-3-oxohexahydro-1H-azepin-4-yl}amino)carbonyl]-3-methylbutyl}-1-benzothiophene-2-carboxamide]
MMP-3 mRNA expression Mean ([1]; 0.1 μM): 0.92 Fraction of IL-1
MMP-3 mRNA expression Mean ([1]; 0.3 μM): 0.91 Fraction of IL-1
MMP-3 mRNA expression Mean ([1]; 1.0 μM): 0.88 Fraction of IL-1
MMP-3 mRNA expression Mean ([1]; 3.0 μM): 0.68 Fraction of IL-1
MMP-3 mRNA expression Mean ([1]; 10.00 μM): 0.43 Fraction of IL-1
MMP-13 mRNA expression Mean ([2]; 0.1 μM): 0.89 Fraction of IL-1
MMP-13 mRNA expression Mean ([2]; 0.3 μM): 0.87 Fraction of IL-1
MMP-13 mRNA expression Mean ([2]; 1.0 μM): 0.79 Fraction of IL-1
MMP-13 mRNA expression Mean ([2]; 3.0 μM): 0.29 Fraction of IL-1
MMP-13 mRNA expression Mean ([2]; 10.00 μM): 0.09 Fraction of IL-1
Aggrecanase Production (Mean ± SEM OD 450 nm) ([3]; 0.03 μM): 2.018 ± 0.044 OD 450 nm
Aggrecanase Production (Mean ± SEM OD 450 nm) ([3]; 0.10 μM): 1.669 ± 0.029 OD 450 nm
Aggrecanase Production (Mean ± SEM OD 450 nm) ([3]; 0.30 μM): 1.139 ± 0.032 OD 450 nm
Aggrecanase Production (Mean ± SEM OD 450 nm) ([3]; 1.00 μM): 0.851 ± 0.024 OD 450 nm
inhibition at 0.03 µM ([3]; Bos taurus, 0.03 μM): 11%
inhibition at 0.1 µM ([3]; Bos taurus, 0.10 μM): 33%
inhibition at 0.3 µM ([3]; Bos taurus, 0.30 μM): 65%
inhibition at 1 µM ([3]; Bos taurus, 1.00 μM): 83%
Hydroxyproline Mean ± SEM [5]: 16 ± 6 µg
inhibition at 1 µM ([5]; Bos taurus, 336 h): 81%
NO levels Mean ± SEM ([6]; 0.3 μM): 17 ± 1 µM
NO levels Mean ± SEM ([6]; 1.0 μM): 6 ± 1 µM
NO levels Mean ± SEM ([6]; 3.0 μM): 2 ± 0 µM
inhibition at 0.3 µM ([6]; Bos taurus, Chondrocyte, 0.3 μM, read-out: % inhibition of NO): 38%
inhibition at 1 µM ([6]; Bos taurus, Chondrocyte, 1.0 μM, read-out: % inhibition of NO): 81%
inhibition at 3 µM ([6]; Bos taurus, Chondrocyte, 3.0 μM, read-out: % inhibition of NO): 96%
% IL-1 reversal ([7]; 0.3 uM): 3%
PG synthesis Mean ± SEM ([7]; 0.3 uM): 878 ± 48 cpm/bead
% IL-1 reversal ([7]; 1.0 uM): 15%
PG synthesis Mean ± SEM ([7]; 1.0 uM): 1066 ± 69 cpm/bead
% IL-1 reversal ([7]; 3.0 uM): 44%
PG synthesis Mean ± SEM ([7]; 3.0 uM): 1530 ± 73 cpm/bead
